Experimental data published in ChEMBL document CHEMBL5291721, “A preclinical secondary pharmacology resource illuminates target-adverse drug reaction associations of marketed drugs” (Nat Commun, 2023).

Experiments:
[1] = molecular target: 3',5'-cyclic-AMP phosphodiesterase 4A (Homo sapiens, UniProt P27815); type: functional
[2] = molecular target: Sodium-dependent noradrenaline transporter (Homo sapiens, UniProt P23975)
Thromboxane A2 receptor = molecular target: T1, Thromboxane A2 receptor (Homo sapiens, UniProt P21731); type: functional, cell-based
T1 sequence (P21731 whole entry): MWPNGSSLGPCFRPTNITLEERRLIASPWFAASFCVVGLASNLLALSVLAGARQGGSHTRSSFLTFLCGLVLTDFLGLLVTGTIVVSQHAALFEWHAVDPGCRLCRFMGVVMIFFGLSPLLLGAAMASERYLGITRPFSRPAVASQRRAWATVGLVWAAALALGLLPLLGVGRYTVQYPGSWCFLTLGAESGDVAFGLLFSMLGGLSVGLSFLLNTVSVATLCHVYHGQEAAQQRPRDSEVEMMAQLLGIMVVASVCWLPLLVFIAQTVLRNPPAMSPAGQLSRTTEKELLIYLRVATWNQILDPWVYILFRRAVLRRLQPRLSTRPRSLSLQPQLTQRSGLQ

[3] = molecular target: T2, Gastrin/cholecystokinin type B receptor (Homo sapiens, UniProt P32239)
T2 sequence (P32239 whole entry): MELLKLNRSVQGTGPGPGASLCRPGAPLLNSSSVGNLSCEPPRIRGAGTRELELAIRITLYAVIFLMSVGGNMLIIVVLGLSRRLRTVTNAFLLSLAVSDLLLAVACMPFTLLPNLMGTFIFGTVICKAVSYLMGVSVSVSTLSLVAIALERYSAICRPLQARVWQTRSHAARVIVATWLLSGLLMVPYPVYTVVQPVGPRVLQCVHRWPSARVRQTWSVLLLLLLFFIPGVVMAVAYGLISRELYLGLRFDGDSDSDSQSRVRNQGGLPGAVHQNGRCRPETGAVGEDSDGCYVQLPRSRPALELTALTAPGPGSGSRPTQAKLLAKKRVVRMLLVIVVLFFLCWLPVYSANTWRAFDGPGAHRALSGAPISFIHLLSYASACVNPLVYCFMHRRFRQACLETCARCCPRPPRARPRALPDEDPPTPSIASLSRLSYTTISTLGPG

Estrogen receptor = molecular target: T3, Estrogen receptor (Homo sapiens, UniProt P03372)
T3 sequence (P03372 whole entry): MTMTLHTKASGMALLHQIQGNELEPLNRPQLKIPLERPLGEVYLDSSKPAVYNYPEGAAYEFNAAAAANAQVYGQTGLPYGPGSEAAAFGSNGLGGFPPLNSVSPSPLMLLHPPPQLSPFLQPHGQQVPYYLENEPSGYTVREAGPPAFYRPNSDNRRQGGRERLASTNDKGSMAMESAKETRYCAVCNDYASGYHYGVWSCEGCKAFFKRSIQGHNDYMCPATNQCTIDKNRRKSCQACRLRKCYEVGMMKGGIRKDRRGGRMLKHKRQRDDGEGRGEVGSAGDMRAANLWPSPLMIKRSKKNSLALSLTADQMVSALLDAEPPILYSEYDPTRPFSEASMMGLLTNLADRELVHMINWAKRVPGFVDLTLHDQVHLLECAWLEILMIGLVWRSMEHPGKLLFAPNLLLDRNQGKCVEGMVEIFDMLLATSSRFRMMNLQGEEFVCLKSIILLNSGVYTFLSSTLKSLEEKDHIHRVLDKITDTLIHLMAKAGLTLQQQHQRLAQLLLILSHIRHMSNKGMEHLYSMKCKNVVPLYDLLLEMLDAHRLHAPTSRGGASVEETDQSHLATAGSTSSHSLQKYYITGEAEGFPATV

Histamine H1 receptor = Histamine H1 receptor (Homo sapiens, UniProt P35367)
Chain of Histamine H1 receptor (P35367 whole entry): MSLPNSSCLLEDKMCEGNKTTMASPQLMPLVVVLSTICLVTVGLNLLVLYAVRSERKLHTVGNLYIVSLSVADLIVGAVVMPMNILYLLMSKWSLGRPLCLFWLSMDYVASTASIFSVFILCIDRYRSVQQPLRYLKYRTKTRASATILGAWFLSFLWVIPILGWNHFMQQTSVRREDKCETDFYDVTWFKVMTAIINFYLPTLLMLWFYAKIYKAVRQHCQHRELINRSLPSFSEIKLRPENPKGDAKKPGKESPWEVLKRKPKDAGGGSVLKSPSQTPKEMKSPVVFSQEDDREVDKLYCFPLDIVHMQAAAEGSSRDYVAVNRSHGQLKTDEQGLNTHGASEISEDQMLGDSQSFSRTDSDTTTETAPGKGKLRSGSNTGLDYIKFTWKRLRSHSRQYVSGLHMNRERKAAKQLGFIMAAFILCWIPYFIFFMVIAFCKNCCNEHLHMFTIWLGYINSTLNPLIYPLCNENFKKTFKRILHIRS

[4] = molecular target: T4, Alpha-1A adrenergic receptor (Homo sapiens, UniProt P35348); type: functional, cell-based
T4 sequence (P35348 whole entry): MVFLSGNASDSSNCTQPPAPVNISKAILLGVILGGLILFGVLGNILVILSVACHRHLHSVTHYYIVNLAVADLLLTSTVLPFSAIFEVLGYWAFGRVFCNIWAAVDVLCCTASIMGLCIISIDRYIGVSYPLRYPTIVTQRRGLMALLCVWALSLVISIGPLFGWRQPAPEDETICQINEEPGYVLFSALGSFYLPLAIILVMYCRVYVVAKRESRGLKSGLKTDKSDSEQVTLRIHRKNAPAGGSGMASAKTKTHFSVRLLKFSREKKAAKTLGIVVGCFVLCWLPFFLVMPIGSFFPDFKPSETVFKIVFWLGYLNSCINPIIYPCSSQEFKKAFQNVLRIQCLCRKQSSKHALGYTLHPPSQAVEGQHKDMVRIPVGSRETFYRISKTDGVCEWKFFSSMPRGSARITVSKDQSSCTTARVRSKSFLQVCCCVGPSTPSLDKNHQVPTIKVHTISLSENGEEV

[5] = molecular target: 5-hydroxytryptamine receptor 2B (Homo sapiens, UniProt P41595); type: functional, cell-based
Chain of 5-hydroxytryptamine receptor 2B (P41595 whole entry): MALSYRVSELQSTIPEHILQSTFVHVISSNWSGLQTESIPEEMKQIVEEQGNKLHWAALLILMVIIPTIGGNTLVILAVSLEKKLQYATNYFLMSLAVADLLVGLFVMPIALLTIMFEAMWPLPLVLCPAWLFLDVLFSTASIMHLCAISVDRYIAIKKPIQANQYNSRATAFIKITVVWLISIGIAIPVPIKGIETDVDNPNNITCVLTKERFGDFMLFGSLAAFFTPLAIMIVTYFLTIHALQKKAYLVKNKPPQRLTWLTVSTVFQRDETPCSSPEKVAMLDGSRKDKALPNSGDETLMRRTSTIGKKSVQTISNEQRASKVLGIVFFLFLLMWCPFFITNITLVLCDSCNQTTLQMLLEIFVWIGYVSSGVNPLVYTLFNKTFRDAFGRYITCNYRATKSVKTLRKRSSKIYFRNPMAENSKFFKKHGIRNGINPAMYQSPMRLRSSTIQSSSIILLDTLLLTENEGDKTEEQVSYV
Further: assay procedure not described here.

Chain of 3',5'-cyclic-AMP phosphodiesterase 4A (P27815 whole entry): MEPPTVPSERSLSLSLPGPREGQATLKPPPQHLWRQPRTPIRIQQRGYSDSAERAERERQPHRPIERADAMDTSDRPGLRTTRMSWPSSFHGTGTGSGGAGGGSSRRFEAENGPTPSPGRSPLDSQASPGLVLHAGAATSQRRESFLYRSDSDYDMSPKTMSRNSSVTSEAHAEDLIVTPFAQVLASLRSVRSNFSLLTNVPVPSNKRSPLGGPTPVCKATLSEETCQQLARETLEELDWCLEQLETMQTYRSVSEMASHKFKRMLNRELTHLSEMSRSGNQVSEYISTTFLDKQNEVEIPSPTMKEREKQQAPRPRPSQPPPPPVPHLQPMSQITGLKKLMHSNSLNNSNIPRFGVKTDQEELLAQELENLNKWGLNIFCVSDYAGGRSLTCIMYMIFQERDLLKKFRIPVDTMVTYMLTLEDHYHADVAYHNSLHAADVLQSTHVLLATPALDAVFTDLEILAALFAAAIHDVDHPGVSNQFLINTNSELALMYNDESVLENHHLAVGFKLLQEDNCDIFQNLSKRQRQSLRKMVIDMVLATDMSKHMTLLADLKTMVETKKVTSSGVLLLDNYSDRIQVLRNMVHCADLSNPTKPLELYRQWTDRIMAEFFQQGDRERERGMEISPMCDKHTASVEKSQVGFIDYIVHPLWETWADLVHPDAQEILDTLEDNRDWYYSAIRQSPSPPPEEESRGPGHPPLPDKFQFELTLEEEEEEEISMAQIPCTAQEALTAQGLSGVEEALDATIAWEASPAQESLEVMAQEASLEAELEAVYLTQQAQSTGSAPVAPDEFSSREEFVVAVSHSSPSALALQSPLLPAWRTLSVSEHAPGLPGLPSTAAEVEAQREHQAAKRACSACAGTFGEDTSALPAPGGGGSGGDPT
Chain of Sodium-dependent noradrenaline transporter (P23975 whole entry): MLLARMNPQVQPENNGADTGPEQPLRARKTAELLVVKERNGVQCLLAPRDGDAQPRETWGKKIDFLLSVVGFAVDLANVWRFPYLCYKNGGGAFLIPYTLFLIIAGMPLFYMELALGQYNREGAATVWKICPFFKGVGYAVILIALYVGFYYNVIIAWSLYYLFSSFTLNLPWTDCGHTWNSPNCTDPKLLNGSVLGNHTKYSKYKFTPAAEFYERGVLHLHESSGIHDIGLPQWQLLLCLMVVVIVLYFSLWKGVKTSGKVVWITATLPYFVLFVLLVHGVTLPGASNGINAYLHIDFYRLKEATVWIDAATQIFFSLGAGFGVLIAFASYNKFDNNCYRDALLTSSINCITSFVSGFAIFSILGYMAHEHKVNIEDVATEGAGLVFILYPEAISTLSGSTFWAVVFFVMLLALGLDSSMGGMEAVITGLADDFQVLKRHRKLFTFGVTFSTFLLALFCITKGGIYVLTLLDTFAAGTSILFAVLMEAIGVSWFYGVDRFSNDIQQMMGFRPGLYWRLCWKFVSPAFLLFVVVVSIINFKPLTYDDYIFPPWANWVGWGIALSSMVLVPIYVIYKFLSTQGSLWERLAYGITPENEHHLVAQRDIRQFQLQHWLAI

| Structure (SMILES) | AC50 [1] | AC50 [2] | AC50 (Thromboxane A2 receptor) | AC50 [3] | AC50 (Estrogen receptor) | AC50 (Histamine H1 receptor) | AC50 [4] | AC50 [5] |
| --- | --- | --- | --- | --- | --- | --- | --- | --- |
| CCN(CC)C(=S)S [DITIOCARB] | > 30 µM | > 30 µM | > 30 µM |  |  |  |  |  |
| Cc1cc(N)c2ccccc2[n+]1CCCCCCCCCC[n+]1c(C)cc(N)c2ccccc21 | 3.16 µM | 1.47 µM | > 30 µM |  |  |  |  |  |
| C=CCSCC1Nc2cc(Cl)c(S(N)(=O)=O)cc2S(=O)(=O)N1 (centres undefined) [ALTHIAZIDE] | > 30 µM | > 30 µM | > 30 µM |  |  |  |  |  |
| COc1cc2c(cc1OC)CC(=O)N(CCCN(C)C[C@H]1Cc3cc(OC)c(OC)cc31)CC2 [IVABRADINE] | > 30 µM | > 30 µM | > 30 µM |  |  |  |  |  |
| CNCc1ccc(-c2[nH]c3cc(F)cc4c3c2CCNC4=O)cc1 [RUCAPARIB] |  |  |  | > 30 µM | > 30 µM | > 10 µM |  |  |
| CNC1=Nc2ccc(Cl)cc2C(c2ccccc2)=[N+]([O-])C1 [CHLORDIAZEPOXIDE] |  |  |  | > 30 µM | > 30 µM |  | > 30 µM | > 10 µM |
| C[C@H](Cc1cc2c(c(C(N)=O)c1)N(CCCO)CC2)NCCOc1ccccc1OCC(F)(F)F [SILODOSIN] | > 30 µM | > 30 µM | > 30 µM |  |  |  |  |  |
| COc1cc(N2CCC(N3CCN(C)CC3)CC2)ccc1Nc1ncc(Cl)c(Nc2ccccc2P(C)(C)=O)n1 [BRIGATINIB] | > 30 µM | > 30 µM | > 30 µM |  |  |  |  |  |
| Cc1noc(NS(=O)(=O)c2ccc(N)cc2)c1C [SULFISOXAZOLE] |  |  |  |  | > 10 µM |  | > 30 µM | > 10 µM |
| CCC(C)C(CC)C(N)=O (centres undefined) [VALNOCTAMIDE] |  |  |  | > 30 µM | > 30 µM | > 30 µM | > 30 µM |  |
| Cc1cc(NC(=O)C2=C(O)c3ccccc3S(=O)(=O)N2C)no1 [ISOXICAM] | > 30 µM | > 30 µM | > 30 µM |  |  |  |  |  |
| CC(C)(C)C(=O)OCC(=O)[C@H]1CC[C@H]2[C@@H]3CCC4=CC(=O)CC[C@]4(C)[C@H]3CC[C@]12C [DESOXYCORTICOSTERONE PIVALATE] |  |  |  |  | > 30 µM | > 10 µM | > 30 µM | > 10 µM |
| c1ccc2c(c1)CCc1ccccc1N2C1CN2CCC1CC2 (centres undefined) [QUINUPRAMINE] | > 30 µM | 4.32 µM | > 30 µM |  |  |  |  |  |
| CN1C(=O)/C(=N\NC(N)=S)c2ccccc21 [METHISAZONE] | > 30 µM | > 30 µM | 21.8 µM |  |  |  |  |  |
| NC(=O)OCC(O)COc1ccc(Cl)cc1 (centres undefined) [CHLORPHENESIN CARBAMATE] | > 30 µM | > 30 µM | > 30 µM |  |  |  |  |  |
| CCOC(=O)[C@H](CCc1ccccc1)N[C@@H](C)C(=O)N(CC(=O)O)C1Cc2ccccc2C1 | > 30 µM | > 30 µM | > 30 µM |  |  |  |  |  |
| CCC[C@H](NC(=O)[C@@H]1[C@H]2CCC[C@H]2CN1C(=O)[C@@H](NC(=O)[C@@H](NC(=O)c1cnccn1)C1CCCCC1)C(C)(C)C)C(=O)C(=O)NC1CC1 |  |  |  | > 30 µM | > 30 µM | > 10 µM |  |  |
| CCOC(=O)C1=C[C@]2(CC)CCCN3CCc4c(n1c1ccccc41)[C@@H]32 [VINPOCETINE] |  |  |  | > 30 µM |  | > 30 µM | > 30 µM |  |
| C[C@H](Cc1ccc(O)c(O)c1)[C@@H](C)Cc1ccc(O)c(O)c1 [MASOPROCOL] |  |  |  |  | 0.749 µM | > 30 µM | > 30 µM | 11 µM |
| C=C1CC[C@H](O)C/C1=C/C=C1\CCC[C@]2(C)[C@@H]([C@H](C)/C=C/[C@H](C)C(C)C)CC[C@@H]12 [ERGOCALCIFEROL] | > 30 µM | > 30 µM | > 30 µM |  |  |  |  |  |
